Reference: patent publication US20020040011A1, “Naphthoquinone compositions and uses thereof” (priority 2000, published 2002)

System: murine fibrosarcomas (RIF-1 cells)
Experiment: Chemopotentiation of cisplatin by menadione: tumor growth delay of RIF-1 fibrosarcomas in C3H mice
Format: in vivo
Details: for Median (TVQT) / TVQT ± S.E. (mean tumor volume quadrupling time) / TVQT/CTVQT (ratio of treated over untreated control): intradermal RIF-1 tumors, female C3H mice; for Median (TVQT) / TVQT ± S.E. (mean tumor volume quadrupling time) / TVQT/CTVQT (ratio of treated over untreated control) / Delay: i.p., menadione 10 mg/kg, cisplatin 4 mg/kg, combination: menadione 30 min before cisplatin; for Delay: median treated minus median control, RIF-1 tumors, C3H mice
Procedure: Transplantable experimental murine fibrosarcomas (2×10^5 RIF-1 cells) were grown intradermally in the flanks of 3 month old female C3H mice (Charles River, Holister, Calif.). When the tumors reached a volume of approximately 100 mm^3, the mice were randomly assigned to each experimental group (4 mice per group). The experimental compositions were prepared as described in Table 1. Menadione was obtained from Sigma Chemical Co. (St. Louis, Mo.) and was made to the appropriate concentration in DMSO. Cisplatin (David Bull Laboratories- Mulgrave, Australia, lot. 5201844x) was made to the appropriate concentration in water for injection. The compositions were injected systemically (i.e., intraperitoneally, i.p.), in a volume of 100 microliters. For the treatment of group 3, menadione was injected 30 minutes prior to the injection of cisplatin. After treatment, the growth of the tumors was monitored three times per week by caliper measurements of three perpendicular diameters of the tumor and calculation of tumor volume from the formula: V=π/6×D1×D2×D3, where D1-3 are the diameters in mm along the three different perpendicular axes. The tumors were followed until they reached a size of four times their day zero treatment volume (TVQT), or up to 30 days after treatment, whichever came first. The data is expressed as the “tumor volume quadrupling time” (TVQT) mean and as the “delay.” Mean TVQT is the mean days required for individual tumors to grow to four times the tumor volume at the initial treatment day. The “delay” is the median of days required for a tumor to grow to four times the mean size of the treated group, minus the median of days required to grow to four times the mean size of the control group. The data is also expressed as the ratio of the tumor volume quadrupling time of the treated tumor over the untreated control group ([…]). Increasing values of this ratio indicate increased antitumor response.

Row | Structure (SMILES) | antiproliferative activity of cisplatin when used with the chemopotentiator menadione (group 3 (menadione 10 mg/kg then cisplatin 4 mg/kg) versus either agent alone, more than additive effect) | Median (TVQT) [days] | TVQT ± S.E. (mean tumor volume quadrupling time) [days] | TVQT/CTVQT (ratio of treated over untreated control) | Delay [days]
1 | N.N.[Cl][Pt][Cl] [Cisplatin, cis-diamminedichloroplatinum II] | enhanced | 8.3 | 8.4 ± 0.3 | 1.3 | 1.44
2 | CC1=CC(=O)c2ccccc2C1=O [Menadione, 2-Methyl-1,4-Naphthoquinone] |  | 7.5 | 7.0 ± 0.5 | 1.0 | 0.61
